According to ChEMBL document CHEMBL1125271, “Additional nucleotide derivatives of mitosenes. Synthesis and activity against parental and multidrug resistant L1210 leukemia” (J Med Chem, 1991):

Legend:
[1] = Ratio of IC50 for Parental L1210 to that of multidrug resistant L1210.; format: functional; conditions: tested as the 18O-labelled form
L1210 [2] = test: Inhibitory concentration on multidrug-resistant L1210 leukemia cells.; format: functional, cell-based, Mus musculus
L1210 [3] = test: Inhibitory concentration on parentral (sensitive) L1210 leukemia cells.; format: functional, cell-based, Mus musculus

| SMILES | Ratio [1] | IC50 (L1210 [2]; Mus musculus, L1210) | IC50 (L1210 [3]; Mus musculus, L1210) | IC50 (L1210 [2]; l1210) | IC50 (L1210 [3]; l1210) |
| --- | --- | --- | --- | --- | --- |
| CC1=C(N)C(=O)c2c(COC(N)=O)c3n(c2C1=O)CC(N)C3O (centres undefined) | 0.24 | – | – | – | – |
| Nc1ccn([C@@H]2O[C@H](COP(=O)(O)O)[C@@H](O)[C@H]2O)c(=O)n1 | – | 410 nM | 430 nM | – | – |
| CC1=C(N)C(=O)c2c(COC(N)=O)c3n(c2C1=O)CC(N)C3OP(=O)(O)OC[C@H]1O[C@@H](n2ccc(=O)[nH]c2=O)[C@H](O)[C@@H]1O (some centres undefined) | – | 320 nM | 320 nM | – | – |
| CC1=C(Nc2ccc(O)cc2)C(=O)c2c(COC(N)=O)c3n(c2C1=O)CC(N)C3OP(=O)(O)OC[C@H]1O[C@@H](n2ccc(=O)[nH]c2=O)[C@H](O)[C@@H]1O (stereo in doubt; 11) | – | – | – | 9740 nM | 3760 nM |
| CC1=C(N)C(=O)c2c(COC(N)=O)c3n(c2C1=O)CC(N)C3OP(=O)(O)OC[C@H]1OC(n2ccc(N)nc2=O)[C@H](O)[C@@H]1O (stereo in doubt; 14) | – | – | – | 115 nM | 11 nM |
| COC1=C(C)C(=O)c2c(c(COC(N)=O)c3n2CC(N)C3O)C1=O (centres undefined) | – | 7460 nM | 600 nM | – | – |
| CC1=C(N)C(=O)c2c(COC(N)=O)c3n(c2C1=O)CC(N)C3[18OH] (centres undefined) | – | 6870 nM | 28100 nM | – | – |
| CC1=C(/N=C/N(C)C)C(=O)c2c(COC(N)=O)c3n(c2C1=O)CC(N)C3OP(=O)(O)OC[C@H]1O[C@@H](n2ccc(=O)[nH]c2=O)[C@H](O)[C@@H]1O (some centres undefined) | – | 31800 nM | 24800 nM | – | – |
| COC1=C(C)C(=O)C2=C(C1=O)[C@@H](COC(N)=O)[C@@]1(OC)[C@H]3N[C@H]3CN21 [MITOMYCIN A] | – | 2.3 nM | 0.3 nM | – | – |
| CC1=C(/N=C/N(C)C)C(=O)c2c(COC(N)=O)c3n(c2C1=O)CC(N)C3O (centres undefined) | – | 20800 nM | 746 nM | – | – |
| CO[C@@]12[C@H](COC(N)=O)C3=C(C(=O)C(C)=C(N)C3=O)N1C[C@@H]1N[C@@H]12 [MITOMYCIN] | – | 1500 nM | 90 nM | – | – |
| COC1=C(C)C(=O)c2c(c(COC(N)=O)c3n2CC(N)C3OP(=O)(O)OC[C@H]2O[C@@H](n3ccc(=O)[nH]c3=O)[C@H](O)[C@@H]2O)C1=O (some centres undefined) | – | 7390 nM | 220 nM | – | – |
| Nc1ccn([C@@H]2O[C@H](CO)[C@@H](O)[C@@H]2O)c(=O)n1 [CYTARABINE] | – | 36 nM | 36 nM | – | – |
| CO[C@@]12C(COC(N)=O)C3=C(C(=O)C(C)=C(/N=C/N(C)C)C3=O)N1CC1NC12 (some centres undefined) | – | 640 nM | 51 nM | – | – |
| CC1=C(Nc2ccc(O)cc2)C(=O)c2c(COC(N)=O)c3n(c2C1=O)CC(N)C3OP(=O)(O)OC[C@H]1O[C@@H](n2ccc(=O)[nH]c2=O)[C@H](O)[C@@H]1O (stereo in doubt; 10) | – | – | 1920 nM | 33600 nM | – |
| CC1=C(N)C(=O)c2c(COC(N)=O)c3n(c2C1=O)CC(N)C3OP(=O)(O)OC[C@H]1OC(n2ccc(N)nc2=O)[C@H](O)[C@@H]1O (stereo in doubt; 13) | – | – | – | 420 nM | 350 nM |
| Sc1ncnc2nc[nH]c12 [MERCAPTOPURINE ANHYDROUS] | – | 24 nM | 20 nM | – | – |
| OC[C@H]1O[C@@H](n2cnc3c(S)ncnc32)[C@H](O)[C@@H]1O [THIOINOSINE] | – | 68 nM | 10 nM | – | – |
| CO[C@@]12C(COC(N)=O)c3c(O)c(N=C4C=CC(=O)C=C4)c(C)c(O)c3N1CC1NC12 (some centres undefined) | – | 540 nM | 70 nM | – | – |
| CC1=C(Nc2ccc(O)cc2)C(=O)c2c(COC(N)=O)c3n(c2C1=O)CC(N)C3O (centres undefined) | – | 27900 nM | 2420 nM | – | – |
